target: BCL6 (Homo sapiens (Human), UniProt P41182); assay: Immunofluorescence high content imaging of BCL6 degradation in T47D cells; format: cell-based; settings: class symbols A-D, read-out: EC50 (nM)*
Procedure: Immunofluorescence Protocol for High Cotent Imaging of BCL6
T47D cells were seeded in 100 μl volume of RPMI1640-10% FBS in a 96-well black/clear bottom plates for adherent lines (Corning #3904).
Day 1. T47D breast cancer epithelial cells were seeded at a density so that confluence is ˜70-90% at endpoint. Cells were seeded at 7K/0.1 ml/well the morning prior to the addition of exemplary bifunctional degradation compounds.
Day 2. Prepare an 11 point 3-fold serial dilution of exemplary bifunctional compound in DMSO and aliquot an appropriate volume to cell growth media to generate a 2× final concentration of exemplary bifunctional compound. Add an equal volume (0.1 ml) of 2× exemplary bifunctional compound/media mix to previously plated cells, for a final top concentration in aqueous cell growth media of 0.1 or 1 μM. Incubate for 3 days at 37° C., 5% CO2.
Day 5 Immunofluorescence. Discard cell media. Wash wells with 200 μl of room temperature phosphate-buffered saline (PBS). Prepared 4% paraformaldehyde (PFA) from 16% PFA (Electron Microscopy Sciences #15710) using 1×PBS. Fifty μl of 4% PF was added to each well and incubate for 15 minutes at room temperature to fix the cells. The PFA was aspirated and the cells washed twice with PBS (200 μl)).
Prepared 0.1% Triton X-100 in PBS using 10% triton X-100 stock. The cells were permeabilized by adding 100 ul of the 0.1% Triton X-100 in PBS to each well to permeabilize cells and incubating at room temperature for 15 minutes. Cells were washed twice with PBS.
Prepared 3% BSA/PBS (from Thermofisher #37515 Blocker BSA in TBS, 10%), and 100 ul was added to each well. The cells were incubated for at least 1 hour at room temperature.
Prepared 1% BSA/PBS using Blocker BSA/PBS, and the 3% BSA/PBS removed from the wells.
For no primary antibody controls, 50 μl 1% BSA/PBS was added.
Primary antibody (BCL6 Rb Ab, CST-14895, Cell Signaling) was diluted 1:300 in 1% BSA/PBS using Blocker BSA/PBS.
Fifty μl of primary antibody added to all remaining wells (i.e., all wells other than the primary antibody controls) and the cells were incubated overnight at 4° C. with slow orbital movement.
Day 6. Contents of the wells was removed and the cells washed four times with 200 ul PBS. 1% BSA/PBS was prepared using Blocker BSA in PBS.
Diluted secondary antibody goat anti-Rb IgG Alexa-488 1:1000, and cell mask-Alexa-647 1:3000 in 1% BSA/PBS in the same mix. Add 50 μl to each well and incubate at room temperature for 1 hour in the dark.
Cells were washed three times with 200 ul PBS, and then incubated for 10 minutes with 100 ul Hoechst dye at 1 μg/mL (20 mM stock) to stain cell nuclei. Wells were then washed with 200 μl PBS, and 100 ul of PBS was added to each well and the plate covered plate with a plastic opaque cover. Plates were stored at 4° C. and covered in aluminum foil until imaged.
Plates were equilibrated to room temperature prior to reading. The bottom of the plate was wiped with 70% isopropanol immediately prior to imaging.
10×, 4 fields/well, include Top hat smoothing in the analysis protocol.

Row | DC50 [nM] | SMILES
1 | > 100 | CNC(=O)COc1cc2cc(Nc3nc(N4CCC(OCCOCCOCCOCCOc5ccc6c(c5)CN(C5CCC(=O)NC5=O)C6=O)CC4)ncc3Cl)ccc2n(C)c1=O (stereo not drawn) [compound 59, 2-((6-((5-chloro-2-(4-(2-(2-(2-(2-((2-(2,6-dioxopiperidin-3-yl)-1-oxoisoindolin-5-yl)oxy)ethoxy)ethoxy)ethoxy)ethoxy)piperidin-1-yl)pyrimidin-4-yl)amino)-1-methyl-2-oxo-1,2-dihydroquinolin-3-yl)oxy)-N-methylacetamide]
2 | > 100 | CNC(=O)COc1cc2cc(Nc3nc(N4CCC(OCCOCCOCCOCCOc5ccc6c(c5)C(=O)N(C5CCC(=O)NC5=O)C6=O)CC4)ncc3Cl)ccc2n(C)c1=O (stereo not drawn) [compound 60, 2-((6-((5-chloro-2-(4-(2-(2-(2-(2-((2-(2,6-dioxopiperidin-3-yl)-1,3-dioxoisoindolin-5-yl)oxy)ethoxy)ethoxy)ethoxy)ethoxy)piperidin-1-yl)pyrimidin-4-yl)amino)-1-methyl-2-oxo-1,2-dihydroquinolin-3-yl)oxy)-N-methylacetamide]
3 | 10 to 50 | CNC(=O)COc1cc2cc(Nc3nc(N4CCC(OCCOCCOc5ccc6c(c5)CN(C5CCC(=O)NC5=O)C6=O)CC4)ncc3Cl)ccc2n(C)c1=O (stereo not drawn) [compound 61, 2-((6-((5-chloro-2-(4-(2-(2-((2-(2,6-dioxopiperidin-3-yl)-1-oxoisoindolin-5-yl)oxy)ethoxy)ethoxy)piperidin-1-yl)pyrimidin-4-yl)amino)-1-methyl-2-oxo-1,2-dihydroquinolin-3-yl)oxy)-N-methylacetamide]
4 | 10 to 50 | CNC(=O)COc1cc2cc(Nc3nc(N4CCC(OCCOCCOc5ccc6c(c5)C(=O)N(C5CCC(=O)NC5=O)C6=O)CC4)ncc3Cl)ccc2n(C)c1=O (stereo not drawn) [compound 63, 2-((6-((5-chloro-2-(4-(2-(2-((2-(2,6-dioxopiperidin-3-yl)-1,3-dioxoisoindolin-5-yl)oxy)ethoxy)ethoxy)piperidin-1-yl)pyrimidin-4-yl)amino)-1-methyl-2-oxo-1,2-dihydroquinolin-3-yl)oxy)-N-methylacetamide]
5 | > 100 | CNC(=O)COc1cc2cc(Nc3nc(N4CCC(OCCOCCOCCOCCOCCOc5ccc6c(c5)C(=O)N(C5CCC(=O)NC5=O)C6=O)CC4)ncc3Cl)ccc2n(C)c1=O (stereo not drawn) [compound 64, 2-((6-((5-chloro-2-(4-((14-((2-(2,6-dioxopiperidin-3-yl)-1,3-dioxoisoindolin-5-yl)oxy)-3,6,9,12-tetraoxatetradecyl)oxy)piperidin-1-yl)pyrimidin-4-yl)amino)-1-methyl-2-oxo-1,2-dihydroquinolin-3-yl)oxy)-N-methylacetamide]
6 | > 100 | CNC(=O)COc1cc2cc(Nc3nc(N4CCC(OCCOCCOCCOc5ccc6c(c5)CN(C5CCC(=O)NC5=O)C6=O)CC4)ncc3Cl)ccc2n(C)c1=O (stereo not drawn) [compound 65, 2-((6-((5-chloro-2-(4-(2-(2-(2-((2-(2,6-dioxopiperidin-3-yl)-1-oxoisoindolin-5-yl)oxy)ethoxy)ethoxy)ethoxy)piperidin-1-yl)pyrimidin-4-yl)amino)-1-methyl-2-oxo-1,2-dihydroquinolin-3-yl)oxy)-N-methylacetamide]
7 | > 100 | CNC(=O)COc1cc2cc(Nc3nc(N4CCC(OCCOCCOCCOCCNc5cccc6c5C(=O)N(C5CCC(=O)NC5=O)C6=O)CC4)ncc3Cl)ccc2n(C)c1=O (stereo not drawn) [compound 66, 2-((6-((5-chloro-2-(4-(2-(2-(2-(2-((2-(2,6-dioxopiperidin-3-yl)-1,3-dioxoisoindolin-4-yl)amino)ethoxy)ethoxy)ethoxy)ethoxy)piperidin-1-yl)pyrimidin-4-yl)amino)-1-methyl-2-oxo-1,2-dihydroquinolin-3-yl)oxy)-N-methylacetamide]
8 | > 100 | CNC(=O)COc1cc2cc(Nc3nc(N4CCC(OCCOCCOCCOCCOCCOCCOc5ccc6c(c5)CN(C5CCC(=O)NC5=O)C6=O)CC4)ncc3Cl)ccc2n(C)c1=O (stereo not drawn) [compound 67, 2-((6-((5-chloro-2-(4-((17-((2-(2,6-dioxopiperidin-3-yl)-1-oxoisoindolin-5-yl)oxy)-3,6,9,12,15-pentaoxaheptadecyl)oxy)piperidin-1-yl)pyrimidin-4-yl)amino)-1-methyl-2-oxo-1,2-dihydroquinolin-3-yl)oxy)-N-methylacetamide]
9 | > 100 | CNC(=O)COc1cc2cc(Nc3nc(N4CCC(OCCOCCOCCOCCOCCOCCOc5ccc6c(c5)C(=O)N(C5CCC(=O)NC5=O)C6=O)CC4)ncc3Cl)ccc2n(C)c1=O (stereo not drawn) [compound 68, 2-((6-((5-chloro-2-(4-((17-((2-(2,6-dioxopiperidin-3-yl)-1,3-dioxoisoindolin-5-yl)oxy)-3,6,9,12,15-pentaoxaheptadecyl)oxy)piperidin-1-yl)pyrimidin-4-yl)amino)-1-methyl-2-oxo-1,2-dihydroquinolin-3-yl)oxy)-N-methylacetamide]
10 | > 100 | CNC(=O)COc1cc2cc(Nc3nc(N4CCC(OCCOCCOCCOCCOCCNc5cccc6c5C(=O)N(C5CCC(=O)NC5=O)C6=O)CC4)ncc3Cl)ccc2n(C)c1=O (stereo not drawn) [compound 69, 2-((6-((5-chloro-2-(4-((14-((2-(2,6-dioxopiperidin-3-yl)-1,3-dioxoisoindolin-4-yl)amino)-3,6,9,12-tetraoxatetradecyl)oxy)piperidin-1-yl)pyrimidin-4-yl)amino)-1-methyl-2-oxo-1,2-dihydroquinolin-3-yl)oxy)-N-methylacetamide]
11 | > 100 | CNC(=O)COc1cc2cc(Nc3nc(N4CCC(OCCOCCOCC(=O)N[C@H](C(=O)N5C[C@H](O)C[C@H]5C(=O)NCc5ccc(-c6scnc6C)cc5)C(C)(C)C)CC4)ncc3Cl)ccc2n(C)c1=O [compound 70, (2S,4R)-1-((S)-2-(2-(2-(2-((1-(5-chloro-4-((1-methyl-3-(2-(methylamino)-2-oxoethoxy)-2-oxo-1,2-dihydroquinolin-6-yl)amino)pyrimidin-2-yl)piperidin-4-yl)oxy)ethoxy)ethoxy)acetamido)-3,3-dimethylbutanoyl)-4-hydroxy-N-(4-(4-methylthiazol-5-yl)benzyl)pyrrolidine-2-carboxamide]
12 | 50 to 100 | CNC(=O)COc1cc2cc(Nc3nc(N4CCC(OCCOc5ccc6c(c5)CN(C5CCC(=O)NC5=O)C6=O)CC4)ncc3Cl)ccc2n(C)c1=O (stereo not drawn) [compound 71, 2-((6-((5-chloro-2-(4-(2-((2-(2,6-dioxopiperidin-3-yl)-1-oxoisoindolin-5-yl)oxy)ethoxy)piperidin-1-yl)pyrimidin-4-yl)amino)-1-methyl-2-oxo-1,2-dihydroquinolin-3-yl)oxy)-N-methylacetamide]
13 | 50 to 100 | CNC(=O)COc1cc2cc(Nc3nc(N4CCC(OCCOc5ccc6c(c5)C(=O)N(C5CCC(=O)NC5=O)C6=O)CC4)ncc3Cl)ccc2n(C)c1=O (stereo not drawn) [compound 72, 2-((6-((5-chloro-2-(4-(2-((2-(2,6-dioxopiperidin-3-yl)-1,3-dioxoisoindolin-5-yl)oxy)ethoxy)piperidin-1-yl)pyrimidin-4-yl)amino)-1-methyl-2-oxo-1,2-dihydroquinolin-3-yl)oxy)-N-methylacetamide]
14 | > 100 | CN1C(=O)CCc2cc(Nc3cc(OC4CCN(CCOCCOc5ccc6c(c5)C(=O)N(C5CCC(=O)NC5=O)C6=O)CC4)c([N+](=O)[O-])cc3Cl)ccc21 (stereo not drawn) [compound 73, 5-(2-(2-(4-(4-chloro-5-((1-methyl-2-oxo-1,2,3,4-tetrahydroquinolin-6-yl)amino)-2-nitrophenoxy)piperidin-1-yl)ethoxy)ethoxy)-2-(2,6-dioxopiperidin-3-yl)isoindoline-1,3-dione]
15 | > 100 | O=C1CCC(N2C(=O)c3ccc(OCCOCCN4CCC(Oc5cc(Nc6ccc7c(c6)CCC(=O)N7)c(Cl)cc5[N+](=O)[O-])CC4)cc3C2=O)C(=O)N1 (stereo not drawn) [compound 74, 5-(2-(2-(4-(4-chloro-2-nitro-5-((2-oxo-1,2,3,4-tetrahydroquinolin-6-yl)amino)phenoxy)piperidin-1-yl)ethoxy)ethoxy)-2-(2,6-dioxopiperidin-3-yl)isoindoline-1,3-dione]

Reference: patent US12310975B2, “Modulators of BCL6 proteolysis and associated methods of use” (Arvinas Operations, Inc., priority 2019, dated 2025)
